This is an account of results in US8975261B2, “Aryloxmethyl cyclopropane derivatives as PDE10 inhibitors” (Merck Sharp & Dohme Corp., priority 2011, dated 2015).

human PDE10A2, sequence (Q9Y233 267-1055): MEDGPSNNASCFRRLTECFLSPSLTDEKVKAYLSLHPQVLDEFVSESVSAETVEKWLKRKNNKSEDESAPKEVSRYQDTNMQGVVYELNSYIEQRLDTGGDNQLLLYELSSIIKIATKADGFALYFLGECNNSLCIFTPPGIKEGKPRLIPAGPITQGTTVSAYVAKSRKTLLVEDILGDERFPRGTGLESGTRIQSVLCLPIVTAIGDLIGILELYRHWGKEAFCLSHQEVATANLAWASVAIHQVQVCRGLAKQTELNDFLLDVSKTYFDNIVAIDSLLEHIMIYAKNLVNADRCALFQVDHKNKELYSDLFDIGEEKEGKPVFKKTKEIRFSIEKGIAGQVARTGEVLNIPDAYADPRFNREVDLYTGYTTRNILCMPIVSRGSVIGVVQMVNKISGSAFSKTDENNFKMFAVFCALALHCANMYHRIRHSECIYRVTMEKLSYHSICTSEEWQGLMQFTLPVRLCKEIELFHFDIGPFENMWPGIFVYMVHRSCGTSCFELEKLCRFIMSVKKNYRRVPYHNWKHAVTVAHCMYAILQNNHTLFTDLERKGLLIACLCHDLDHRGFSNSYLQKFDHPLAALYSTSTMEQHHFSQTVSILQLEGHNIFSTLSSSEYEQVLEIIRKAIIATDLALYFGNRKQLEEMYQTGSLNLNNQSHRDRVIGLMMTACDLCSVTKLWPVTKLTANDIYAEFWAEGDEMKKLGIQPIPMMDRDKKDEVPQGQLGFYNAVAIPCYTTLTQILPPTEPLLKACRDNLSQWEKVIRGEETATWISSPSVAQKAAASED

This test has as its target human PDE10A2 (Homo sapiens (Human), UniProt Q9Y233). Kind of test: PDE10 fluorescence polarization (IMAP FP) inhibition assay. Type of test: biochemical. The settings on record: human PDE10A2 from transfected AD293 cell lysate; FAM-labeled cAMP 50 nM; room temperature; read-out: PDE10A Ki. On the procedure:
The activity of the compounds in accordance with the present invention as PDE10 inhibitors may be readily determined without undue experimentation using a fluorescence polarization (FP) methodology that is well known in the art (Huang, W., et al., J. Biomol Screen, 2002, 7: 215).
In a typical experiment the PDE10 inhibitory activity of the compounds of the present invention was determined in accordance with the following experimental method. PDE10A2 was amplified from human fetal brain cDNA (Clontech, Mountain View, Calif.) using a forward primer corresponding to nucleotides 56-77 of human PDE10A2 (Accession No. AF127480, Genbank Identifier 4894716), containing a Kozak consensus sequence, and a reverse primer corresponding to nucleotides 2406-2413 of human PDE10A2 (Accession No. AF127480, Genbank Identifier 4894716). Amplification with Easy-A polymerase (Stratagene, La Jolla, Calif.) was 95° C. for 2 minutes followed by thirty three cycles of 95° C. for 40 seconds, 55° C. for 30 seconds, and 72° C. for 2 minutes 48 seconds. Final extension was 72° C. for 7 minutes. The PCR product was TA cloned into pcDNA3.2-TOPO (Invitrogen, Carlsbad, Calif.) according to standard protocol. AD293 cells with 70-80% confluency were transiently transfected with human PDE10A2/pcDNA3.2-TOPO using Lipofectamine 2000 according to manufacturer specifications (Invitrogen, Carlsbad, Calif.). Cells were harvested 48 hours post-transfection and lysed by sonication (setting 3, 10×5 sec pulses) in a buffer containing 20 mM HEPES, 1 mM EDTA and protease inhibitor cocktail (Roche). Lysate was collected by centrifugation at 75,000×g for 20 minutes. Supernatant containing the cytoplasmic fraction was used for evaluation of PDE10A2 activity. The fluorescence polarization assay for cyclic nucleotide phosphodiesterases was performed using an IMAP® FP kit supplied by Molecular Devices, Sunnyvale, Calif. (product #R8139). IMAP® technology has been applied previously to phosphodiesterase assays (Huang, W., et al., J. Biomol Screen, 2002, 7: 215). Assays were performed at room temperature in 384-well microtiter plates with an incubation volume of 20.2 μL. Solutions of test compounds were prepared in DMSO and serially diluted with DMSO to yield 8 μL of each of 10 solutions differing by 3-fold in concentration, at 32 serial dilutions per plate. 100% inhibition is determined using a known PDE10 inhibitor, which can be any compound that is present at 5,000 times its Ki value in the assay described as follows, such as papaverine (see Siuciak, et al. Neuropharmacology (2006) 51:386-396; Becker, et al. Behav Brain Res (2008) 186(2):155-60; Threlfell, et al., J Pharmacol Exp Ther (2009) 328(3):785-795), 2-[4-[pyridin-4-yl-1-(2,2,2-trifluoroethyl)-1H-pyrazol-3-yl]phenoxymethyl]quinoline succinic acid or 2-[4-(1-methyl-4-pyridin-4-yl-1H-pyrazol-3-yl)-phenoxymethyl]quinoline succinic acid (see Schmidt, et al. J Pharmacol Exp Ther (2008) 325:681-690; Threlfell, et al., J Pharmacol Exp Ther (2009) 328(3): 785-795). 0% of inhibition is determined by using DMSO (1% final concentrations). A Labcyte Echo 555 (Labcyte, Sunnyvale, Calif.) is used to dispense 200 nL from each well of the titration plate to the 384 well assay plate. A solution of enzyme (1/7000 dilution from aliquots; sufficient to produce 20% substrate conversion) and a separate solution of FAM-labeled cAMP PDE from Molecular Devices (product #R7506), at a final concentration of 50 nM are made in the assay buffer (10 mM Tris HCl, pH 7.2, 10 mM MgCl2, 0.05% NaN3 0.01% Tween-20, and 1 mM DTT). The enzyme is added to the assay plates by the addition of 10 μL of enzyme solution to each well, shaken to mix and incubated at room temperature for 60 minutes. The substrate is then added to the assay plates by the addition of 10 uL of substrate solution to each well, shaken to mix, and incubated at room temperature for 60 minutes. […]
For the compound `COc1ccc([C@H]2C[C@@H]2COc2nc(C)ncc2-c2ccc(C)nc2)nc1` [1-73, 4-{[(1S,2S)-2-(5-methoxypyridin-2-yl)cyclopropyl]methoxy}-2-methyl-5-(6-methylpyridin-3-yl)pyrimidine], the Ki came to 0.8 nM.

On to `Cn1cc(-c2cc3ccncc3nc2OC[C@H]2C[C@@H]2c2ccc3ncccc3n2)cn1` [1-42, 2-[(1S,2S)-2-({[3-(1-methyl-1H-pyrazol-4-yl)-1,7-naphthyridin-2-yl]oxy}methyl)cyclo-propyl]-1,5-naphthyridine], for which the Ki was 0.04 nM.

On to `COc1ccc([C@H]2C[C@@H]2COc2nc(C)ncc2/C=C/c2cccnc2)nc1` [TT1, 4-{[(1S,2S)-2-(5-methoxypyridin-2-yl)cyclopropyl]methoxy}-2-methyl-5-[(E)-2-(pyridin-3-yl)ethenyl]pyrimidine], for which the Ki stood at 0.6 nM.

In the case of `COc1ccc([C@H]2C[C@@H]2COc2nc3cccnc3cc2-c2cnn(CCO)c2)nc1` [LL3, 2-[4-(2-{[(1S,2S)-2-(5-methoxypyridin-2-yl)cyclopropyl]methoxy}-1,5-naphthyridin-3-yl)-1H-pyrazol-1-yl]ethanol], the Ki came out at 0.23 nM.

`COc1ccc([C@H]2C[C@@H]2COc2nc(C)c(C)nc2-c2cncc(OC)c2)nc1` [1-36, 2-(5-methoxypyridin-3-yl)-3-{[(1S,2S)-2-(5-methoxypyridin-2-yl)cyclopropyl]methoxy}-5,6-dimethylpyrazine]: the Ki came out at 0.22 nM.

Take `COc1ccc([C@H]2C[C@@H]2COc2nc(C)ncc2-c2cnn(C)c2)nc1` [MM4, 4-{[(1S,2S)-2-(5-methoxypyridin-2-yl)cyclopropyl]methoxy}-2-methyl-5-(1-methyl-1H-pyrazol-4-yl)pyrimidine]: the Ki came out at 0.25 nM.

In the case of `COc1ccc([C@H]2C[C@@H]2COc2nc(C)ncc2-c2csc(C)n2)nc1` [1-57, 4-{[(1S,2S)-2-(5-methoxypyridin-2-yl)cyclopropyl]methoxy}-2-methyl-5-(2-methyl-1,3-thiazol-4-yl)pyrimidine], the Ki is 0.78 nM.

Take `Cc1ncc(-c2cnn(C)c2)c(OC[C@H]2C[C@@H]2c2ccn(C)n2)n1` [1-54, 2-methyl-5-(1-methyl-1H-pyrazol-4-yl)-4-{[(1S,2S)-2-(1-methyl-1H-pyrazol-3-yl)cyclopropyl]methoxy}-pyrimidine]: the inhibition constant Ki came out at 3.2 nM.

For the compound `COc1ccc([C@H]2C[C@@H]2COc2nc(C)ncc2C2=CCC(O)CC2)nc1` (stereo partly drawn) [1-31, 4-(4-{[(1S,2S)-2-(5-methoxypyridin-2-yl)cyclopropyl]methoxy}-2-methylpyrimidin-5-yl)cyclohex-3-en-1-ol], the Ki is 0.15 nM.

For `COc1ccc([C@H]2C[C@@H]2COc2nc3cccnc3cc2C2CCCN(C(C)=O)C2)nc1` (stereo partly drawn) [RR4, 1-[3-(2-{[(1S,2S)-2-(5-methoxypyridin-2-yl)cyclopropyl]methoxy}-1,5-naphthyridin-3-yl)piperidin-1-yl]ethanone], the Ki is 2.5 nM.

As for `COc1ccc([C@H]2C[C@@H]2COc2ncc(C)cc2-c2cnn3c2CCC3)nc1` [1-39, 3-(2-{[(1S,2S)-2-(5-methoxypyridin-2-yl)cyclopropyl]methoxy}-5-methylpyridin-3-yl)-5,6-dihydro-4H-pyrrolo[1,2-b]pyrazole], the Ki is 0.34 nM.

Take `COc1ccc([C@H]2C[C@@H]2COc2nc(C)ncc2-c2nnc(C3CC3)s2)nc1` [1-55, 5-(5-cyclopropyl-1,3,4-thiadiazol-2-yl)-4-{[(1S,2S)-2-(5-methoxypyridin-2-yl)cyclopropyl]methoxy}-2-methylpyrimidine]: the Ki came to 4.2 nM.

Consider `COc1ccc([C@H]2C[C@@H]2COc2nc(C)ncc2CN2CCC(F)(F)C2)nc1` [SS1, 5-[(3,3-difluoropyrrolidin-1-yl)methyl]-4-{[(1S,2S)-2-(5-methoxypyridin-2-yl)cyclopropyl]methoxy}-2-methylpyrimidine], for which the Ki worked out at 60.8 nM.

As to `Cc1ncc(-c2c(C)nn(C)c2C)c(OC[C@H]2C[C@@H]2c2ccc3ccccc3n2)n1` [1-46, 2-[(1S,2S)-2-({[2-methyl-5-(1,3,5-trimethyl-1H-pyrazol-4-yl)pyrimidin-4-yl]oxy}methyl)cyclopropyl]quinoline], the Ki worked out at 0.002 nM.
